Source: patent publication US10188667B2, “Pharmaceutical compositions and methods of use of 4-pregenen-11β-17-21-triol-3,20-dione derivatives” (ALLERGAN, INC., priority 2011, dated 2019)

Experiments:
[1] = patients; eye drops; compared to synthetic GCs such as dexamethasone, prednisolone, fluorometholone; cited from earlier work
[2] = molecular target: Glucocorticoid receptor (GR) (Homo sapiens (Human), UniProt P04150); test: Glucocorticoid receptor transactivation, MMTV-bla HeLa CELLSENSOR reporter assay, agonist mode; format: cell-based; conditions: for % Activation at 100 nM: control compound dexamethasone; for EC50: 5 hours incubation, maximum concentration 100 nM
GAL4(DBD)-MR(LBD) = GAL4(DBD)-MR(LBD) (Homo sapiens (Human), UniProt P08235); test: Mineralocorticoid receptor transactivation, UAS-bla HEK 293T CELLSENSOR reporter assay, agonist mode; format: cell-based; conditions: for % Activation at 100 nM: control compound aldosterone; for EC50: 16 hours incubation, maximum concentration 100 nM, read-out: EC50 (nM) MR (Table 4: mineralocorticoid receptor potency)
Sequence of GAL4(DBD)-MR(LBD) (P08235 726-964): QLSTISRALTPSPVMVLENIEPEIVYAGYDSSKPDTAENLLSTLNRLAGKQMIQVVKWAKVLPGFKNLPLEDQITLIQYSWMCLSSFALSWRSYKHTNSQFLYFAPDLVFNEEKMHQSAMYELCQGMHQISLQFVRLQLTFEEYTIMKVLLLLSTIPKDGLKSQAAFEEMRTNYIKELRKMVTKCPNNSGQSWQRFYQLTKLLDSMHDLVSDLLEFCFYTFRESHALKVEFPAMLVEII
Method: Mineralocorticoid receptor (MR) activation potency was assessed using a HEK 293T cell line containing the UAS-bla reporter (UAS-bla HEK 293T CELLSENSOR®). This cell line was stably cotransfected with an expression construct containing β-lactamase cDNA under control of the GAL4 Upstream Activator Sequence (UAS) and another expression construct encoding for the fusion protein GAL4(DBD)-MR(LBD). […] All assays were performed as 10-point dose responses using a half log-fold dilution series starting with a maximum compound concentration of 100 nM. The compounds were incubated for 16 hours. The activation of the fusion protein GAL4(DBD)-MR(LBD) leads to expression of the reporter β-lactamase which is detected by the conversion of a FRET substrate in a ratiometric assay format. This functional assay allows for measurement of receptor agonism by compounds and can be used to determine compound potency and selectivity. Assay reproducibility was determined by calculating Z′ values for untreated versus maximum stimulation. The Z′ value was greater than 0.6, indicating good reproducibility of the assay format.

Sequence of Glucocorticoid receptor (GR) (P04150 whole entry, the tested form may be a part): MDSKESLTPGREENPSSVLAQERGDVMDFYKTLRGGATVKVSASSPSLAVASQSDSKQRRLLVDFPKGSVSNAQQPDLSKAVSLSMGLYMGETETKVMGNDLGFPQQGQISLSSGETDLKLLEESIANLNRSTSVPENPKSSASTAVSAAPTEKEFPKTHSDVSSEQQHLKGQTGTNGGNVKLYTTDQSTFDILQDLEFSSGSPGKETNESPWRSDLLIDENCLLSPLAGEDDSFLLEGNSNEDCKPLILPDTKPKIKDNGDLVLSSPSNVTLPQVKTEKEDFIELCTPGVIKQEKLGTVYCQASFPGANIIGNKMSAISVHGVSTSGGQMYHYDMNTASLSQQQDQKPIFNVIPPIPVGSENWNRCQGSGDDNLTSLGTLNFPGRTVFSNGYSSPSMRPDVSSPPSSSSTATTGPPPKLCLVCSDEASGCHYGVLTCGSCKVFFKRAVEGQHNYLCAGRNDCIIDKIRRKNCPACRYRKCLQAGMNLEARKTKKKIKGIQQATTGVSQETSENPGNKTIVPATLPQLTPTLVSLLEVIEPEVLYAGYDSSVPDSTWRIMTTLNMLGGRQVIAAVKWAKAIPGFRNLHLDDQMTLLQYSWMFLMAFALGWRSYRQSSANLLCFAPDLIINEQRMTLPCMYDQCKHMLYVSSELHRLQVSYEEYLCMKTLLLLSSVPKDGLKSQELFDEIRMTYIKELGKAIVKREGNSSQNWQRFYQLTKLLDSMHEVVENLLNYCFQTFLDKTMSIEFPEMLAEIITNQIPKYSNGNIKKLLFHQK

| Structure (SMILES) | effect on intraocular pressure [1] | % Activation at 100 nM [2] [%] | EC50 [2] [nM] | % Activation at 100 nM (GAL4(DBD)-MR(LBD)) [%] | EC50 (GAL4(DBD)-MR(LBD)) [nM] |
| --- | --- | --- | --- | --- | --- |
| C[C@]12CCC(=O)C=C1CC[C@@H]1[C@@H]2[C@@H](O)C[C@@]2(C)[C@H]1CC[C@]2(O)C(=O)CO [cortisol] | minimal effect on intraocular pressure |  |  |  |  |
| C[C@]12CCC(=O)C=C1CC[C@@H]1[C@@H]2[C@@H](O)C[C@@]2(C)[C@H]1CC[C@]2(OC(=O)C1CCCC1)C(=O)CO [drawing 11] |  | 88 | 1.35 |  |  |
| C[C@]12CCC(=O)C=C1CC[C@@H]1[C@@H]2[C@@H](O)C[C@@]2(C)[C@H]1CC[C@]2(OC(=O)c1ccccc1)C(=O)CO [drawing 12] |  | 85 | 1.41 |  |  |
| CCCC(=O)O[C@]1(C(=O)CO)CC[C@H]2[C@@H]3CCC4=CC(=O)CC[C@]4(C)[C@H]3[C@@H](O)C[C@@]21C [drawing 13] |  | 86 | 1.97 |  |  |
| CCCCCC(=O)O[C@]1(C(=O)CO)CC[C@H]2[C@@H]3CCC4=CC(=O)CC[C@]4(C)[C@H]3[C@@H](O)C[C@@]21C [drawing 14] |  | 65 | 3.25 |  |  |
| CCCCCCC(=O)O[C@]1(C(=O)CO)CC[C@H]2[C@@H]3CCC4=CC(=O)CC[C@]4(C)[C@H]3[C@@H](O)C[C@@]21C [drawing 15] |  | 47 | 6.04 |  |  |
| CCC(=O)O[C@]1(C(=O)CO)CC[C@H]2[C@@H]3CCC4=CC(=O)CC[C@]4(C)[C@H]3[C@@H](O)C[C@@]21C [drawing 16] |  | 85 | 6.31 |  |  |
| CC(C)C(=O)O[C@]1(C(=O)CO)CC[C@H]2[C@@H]3CCC4=CC(=O)CC[C@]4(C)[C@H]3[C@@H](O)C[C@@]21C [drawing 17] |  | 84 | 7.07 |  |  |
| C[C@]12CCC(=O)C=C1CC[C@@H]1[C@@H]2[C@@H](O)C[C@@]2(C)[C@H]1CC[C@]2(O)C(=O)CO [drawing 18] |  | 43 |  |  |  |
| CCCCCCC(=O)O[C@]1(C(=O)CO)CC[C@H]2[C@@H]3CCC4=CC(=O)CC[C@]4(C)[C@H]3[C@@H](O)C[C@@]21C [drawing 19] |  | 15 | > 100 |  |  |
| C[C@]12CCC(=O)C=C1CC[C@@H]1[C@@H]2[C@@H](O)C[C@@]2(C)[C@H]1CC[C@]2(OC(=O)Cc1ccccc1)C(=O)CO [drawing 20] |  | 5 | > 100 |  |  |
| C[C@]12CCC(=O)C=C1CC[C@@H]1[C@@H]2[C@@H](O)C[C@@]2(C)[C@H]1CC[C@]2(OC(=O)Cc1ccccc1)C(=O)CO [drawing 22] |  |  |  | 81 | 2.85 |
| C[C@]12CCC(=O)C=C1CC[C@@H]1[C@@H]2[C@@H](O)C[C@@]2(C)[C@H]1CC[C@]2(O)C(=O)CO [drawing 23] |  |  |  | 75 | 2.9 |
| CCCC(=O)O[C@]1(C(=O)CO)CC[C@H]2[C@@H]3CCC4=CC(=O)CC[C@]4(C)[C@H]3[C@@H](O)C[C@@]21C [drawing 24] |  |  |  | 77 | 2.94 |
| CCC(=O)O[C@]1(C(=O)CO)CC[C@H]2[C@@H]3CCC4=CC(=O)CC[C@]4(C)[C@H]3[C@@H](O)C[C@@]21C [drawing 25] |  |  |  | 76 | 3.17 |
| CCCCCCC(=O)O[C@]1(C(=O)CO)CC[C@H]2[C@@H]3CCC4=CC(=O)CC[C@]4(C)[C@H]3[C@@H](O)C[C@@]21C [drawing 26] |  |  |  | 72 | 5.27 |
| CCCCCC(=O)O[C@]1(C(=O)CO)CC[C@H]2[C@@H]3CCC4=CC(=O)CC[C@]4(C)[C@H]3[C@@H](O)C[C@@]21C [drawing 27] |  |  |  | 64 | 5.68 |
| C[C@]12CCC(=O)C=C1CC[C@@H]1[C@@H]2[C@@H](O)C[C@@]2(C)[C@H]1CC[C@]2(OC(=O)c1ccccc1)C(=O)CO [drawing 28] |  |  |  | 62 | 7.46 |
| CCCCCCC(=O)O[C@]1(C(=O)CO)CC[C@H]2[C@@H]3CCC4=CC(=O)CC[C@]4(C)[C@H]3[C@@H](O)C[C@@]21C [drawing 29] |  |  |  | 56 | 9.29 |
| CC(C)C(=O)O[C@]1(C(=O)CO)CC[C@H]2[C@@H]3CCC4=CC(=O)CC[C@]4(C)[C@H]3[C@@H](O)C[C@@]21C [drawing 30] |  |  |  | 62 | 15.6 |
| C[C@]12CCC(=O)C=C1CC[C@@H]1[C@@H]2[C@@H](O)C[C@@]2(C)[C@H]1CC[C@]2(OC(=O)C1CCCC1)C(=O)CO [drawing 31] |  |  |  | 27 | > 100 |
